Reference: patent US20060276498A1 (Wyeth, priority 2005, published 2006)

Molecular target: T1, human Cot/Tpl2 kinase (Homo sapiens, UniProt P41279)
T1 construct: human Cot/Tpl2 kinase construct encoding residues 30-398; 6His (N); made in house; host or cells: Sf9 insect cells (baculovirus system, BD Biosciences)
Assay: Tpl2/Cot kinase assay, GST-MEK1 phosphorylation detected by ELISA (DELFIA Eu)
Assay type: biochemical
Method: Sf9 cells expressing the kinase were lysed in 50 mM NaPhosphate pH=8; 300 mM NaCl; 5 mM imidazole; 0.1 mM EGTA; 25 mM beta-glycerophosphate; 1% TX-100, 1% glycerol; 6 mM beta-mercaptoethanol and protease inhibitors. The lysate was clarified by centrifugation and was loaded onto a Ni-Sepharose column. The column was washed with 50 mM NaPhosphate pH=8; 300 mM NaCl; 15 mM imidazole; 1% glycerol; and 6 mM beta-mercaptoethanol. His-Tpl2 was eluted with 50 mM NaPhosphate pH=8; 300 mM NaCl; 250 mM imidazole; 1% glycerol; and 6 mM beta-mercaptoethanol. The eluted protein was further purified by size exclusion chromatography. Fractions corresponding to monomeric Tpl2 were then used in the assay.
Tpl2/Cot activity was directly assayed using GST-MEK1 as a substrate. GST-MEK1 phosphorylation on serine residues 217 and 221 was detected by ELISA. 0.4 nM Tpl2 was incubated with 35 nM GST-MEK1 in a kinase reaction buffer containing 20 mM MOPS pH=7.2; 50 uM ATP; 20 mM MgCl2; 1 mM DTT; 25 mM β-glycerophosphate; 5 mM EGTA; and 1 mM sodium orthovanadate for 1 h at 30° C. The compounds of the inventions solubilized in 100% DMSO were pre-diluted in assay buffer so that the final concentration of DMSO in the reaction was 1%. The kinase reaction was carried out in 100 ul volume on 96 well plates. The kinase reaction was then stopped with the addition of 100 mM EDTA. […] After a 1 hour incubation at room temperature, the detection plate was washed 4 times with TBST (TBS+0.05% Tween 20) and then incubated for another hour at room temperature with anti phospho-MEK1 antibody (Cell Signaling) 1:1000 in 10 mM MOPS 7.5; 150 mM NaCl; 0.05% Tween 20; 0.1% Gelatin; 0.02% NaN3; and 1% BSA. The detection plate was washed again and incubated for 30 min with DELFIA Europium (Eu) labeled goat anti-rabbit IgG (Perkin-Elmer), 1:4000 in the same buffer used for the primary incubation. After a final wash, Eu detection solution was added to each well and the Eu signal was measured in a Wallac Victor^2 Multilabel Counter. IC50 calculations were preformed using the XLfit software package (IDBS, Guildford, UK).

[1] = Table 1, 0.4 nM Tpl2, 35 nM GST-MEK1, 50 uM ATP, 1 h at 30° C.
[2] = Table 2, additional representative compounds

T1 sequence (P41279 30-398): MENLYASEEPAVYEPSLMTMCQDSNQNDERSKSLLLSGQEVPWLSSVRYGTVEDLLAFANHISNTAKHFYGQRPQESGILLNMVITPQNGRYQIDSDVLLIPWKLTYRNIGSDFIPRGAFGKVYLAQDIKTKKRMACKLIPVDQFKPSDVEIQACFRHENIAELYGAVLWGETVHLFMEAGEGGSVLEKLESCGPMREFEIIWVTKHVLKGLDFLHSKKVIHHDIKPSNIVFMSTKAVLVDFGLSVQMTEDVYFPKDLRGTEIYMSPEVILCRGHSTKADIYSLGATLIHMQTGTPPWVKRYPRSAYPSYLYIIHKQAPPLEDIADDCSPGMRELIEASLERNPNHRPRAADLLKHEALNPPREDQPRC

With `CC#Cc1cccc(Nc2c(C#N)cnc3cnc(NCCN4CCOCC4)cc23)c1` [Example 79, 6-(2-morpholinoethylamino)-4-(3-(prop-1-ynyl)phenylamino)-1,7-naphthyridine-3-carbonitrile] the IC50 [1] was > 10 µM.

`N#Cc1cnc2cnc(NCCN3CCOCC3)cc2c1Nc1cccc(-c2ccco2)c1` [Example 80, 4-(3-(furan-2-yl)phenylamino)-6-(2-morpholinoethylamino)-1,7-naphthyridine-3-carbonitrile] was tested, and the IC50 [1] was > 10 µM.

`N#Cc1cnc2cnc(NCCN3CCOCC3)cc2c1Nc1cccc([N+](=O)[O-])c1` [Example 81, 6-(2-morpholinoethylamino)-4-(3-nitrophenylamino)-1,7-naphthyridine-3-carbonitrile] was tested, and the IC50 [1] was 0.27 µM.

With `N#Cc1cnc2cnc(NCCN3CCOCC3)cc2c1Nc1cccc(N)c1` [Example 82, 4-(3-aminophenylamino)-6-(2-morpholinoethylamino)-1,7-naphthyridine-3-carbonitrile] the IC50 [1] was > 10 µM.

In the case of `COC(=O)c1cccc(Nc2c(C#N)cnc3cnc(NCCN4CCOCC4)cc23)c1` [Example 83, Methyl 3-(3-cyano-6-(2-morpholinoethylamino)-1,7-naphthyridin-4-ylamino)benzoate], the IC50 [1] is reported as > 10 µM.

In the case of `N#Cc1cnc2cnc(NCCN3CCOCC3)cc2c1Nc1cccc(C(=O)O)c1` [Example 84, 3-(3-cyano-6-(2-morpholinoethylamino)-1,7-naphthyridin-4-ylamino)benzoic acid], the IC50 [1] is reported as > 10 µM.

For `CS(=O)(=O)Nc1cccc(Nc2c(C#N)cnc3cnc(NCCN4CCOCC4)cc23)c1` [Example 85, N-(3-(3-cyano-6-(2-morpholinoethylamino)-1,7-naphthyridin-4-ylamino)phenyl)methanesulfonamide], the IC50 [1] was > 10 µM.

With `N#Cc1cnc2cnc(NCCN3CCOCC3)cc2c1Nc1cccc(C(N)=O)c1` [Example 86, 3-(3-cyano-6-(2-morpholinoethylamino)-1,7-naphthyridin-4-ylamino)benzamide] the IC50 [1] was > 10 µM.

In the case of `N#Cc1cnc2cnc(NCCN3CCOCC3)cc2c1Nc1ccc(-c2ccccc2)cc1` [Example 87, 4-(1,1′-biphenyl-4-ylamino)-6-[(2-morpholin-4-ylethyl)amino]-1,7-naphthyridine-3-carbonitrile], the IC50 [1] is reported as > 40 µM.

In the case of `N#Cc1cnc2cnc(NCCN3CCOCC3)cc2c1Nc1ccc([N+](=O)[O-])cc1` [Example 88, 6-(2-morpholinoethylamino)-4-(4-nitrophenylamino)-1,7-naphthyridine-3-carbonitrile], the IC50 [1] is reported as 7 µM.

In the case of `CN(c1ccc(F)c(Cl)c1)c1c(C#N)cnc2cnc(NCCN3CCOCC3)cc12` [Example 89, 4-((3-chloro-4-fluorophenyl)(methyl)amino)-6-(2-morpholinoethylamino)-1,7-naphthyridine-3-carbonitrile], the IC50 [1] is reported as > 40 µM.

In the case of `CCC(C)(C)Nc1cc2c(Nc3ccc(F)c(Cl)c3)c(C#N)cnc2cn1` [Example 91, 4-(3-chloro-4-fluorophenylamino)-6-(tert-pentylamino)-1,7-naphthyridine-3-carbonitrile], the IC50 [1] is reported as > 40 µM.

Molecule `N#Cc1cnc2cnc(Nc3ccc(F)c(Cl)c3)cc2c1NC1CCCC1` [Example 92, 6-(3-chloro-4-fluorophenylamino)-4-(cyclopentylamino)-1,7-naphthyridine-3-carbonitrile] has an IC50 [1] of 8 µM.

Molecule `N#Cc1cnc2cnc(NC3CCCC3)cc2c1Nc1ccc(F)c(Cl)c1` [Example 94, 4-(3-Chloro-4-fluoro-phenylamino)-6-cyclopentylamino-[1,7]naphthyridine-3-carbonitrile] has an IC50 [1] of 7.6 µM.

In the case of `N#Cc1cnc2cnc(NCc3cccnc3)cc2c1Nc1ccccc1` [Example 95, 4-Phenylamino-6-[(pyridin-3-ylmethyl)-amino]-[1,7]naphthyridine-3-carbonitrile], the IC50 [1] is reported as 0.33 µM.

For `COc1ccc(CNc2cc3c(Nc4ccc(F)c(Cl)c4)c(C#N)cnc3cn2)cc1` [Example 96, 4-[(3-chloro-4-fluorophenyl)amino]-6-[(4-methoxybenzyl)amino]-1,7-naphthyridine-3-carbonitrile], the IC50 [2] was 0.2 µM.

For `CC(C)c1cccc(Nc2c(C#N)cnc3cnc(F)cc23)c1` [Example 97, 6-fluoro-4-[(3-isopropylphenyl)amino]-1,7-naphthyridine-3-carbonitrile], the IC50 [2] was > 40 µM.

For `N#Cc1cnc2cnc(F)cc2c1NCc1ccc(F)c(Cl)c1` [Example 98, 4-[(3-chloro-4-fluorobenzyl)amino]-6-fluoro-1,7-naphthyridine-3-carbonitrile], the IC50 [2] was > 40 µM.

`N#Cc1cnc2cnc(F)cc2c1Nc1ccc(Oc2ccccc2)cc1` [Example 99, 6-Fluoro-4-(4-phenoxy-phenylamino)-[1,7]naphthyridine-3-carbonitrile] was tested, and the IC50 [2] was 20 µM.

For `N#Cc1cnc2cnc(F)cc2c1Nc1ccc(C(F)(F)F)cc1` [Example 100, 6-fluoro-4-{[4-(trifluoromethyl)phenyl]amino}-1,7-naphthyridine-3-carbonitrile], the IC50 [2] was > 40 µM.

`CC(C)c1ccc(Nc2c(C#N)cnc3cnc(F)cc23)cc1` [Example 101, 6-fluoro-4-[(4-isopropylphenyl)amino]-1,7-naphthyridine-3-carbonitrile] was tested, and the IC50 [2] was > 40 µM.

For `N#Cc1cnc2cnc(F)cc2c1Nc1ccc2[nH]ccc2c1` [Example 102, 6-fluoro-4-(1H-indol-5-ylamino)-1,7-naphthyridine-3-carbonitrile], the IC50 [2] was > 40 µM.

In the case of `N#Cc1cnc2cnc(F)cc2c1Nc1cccc(I)c1` [Example 104, 6-fluoro-4-[(3-iodophenyl)amino]-1,7-naphthyridine-3-carbonitrile], the IC50 [2] is reported as > 40 µM.

In the case of `N#Cc1cnc2cnc(F)cc2c1Nc1cccc([N+](=O)[O-])c1` [Example 105, 6-fluoro-4-[(3-nitrophenyl)amino]-1,7-naphthyridine-3-carbonitrile], the IC50 [2] is reported as > 10 µM.

`N#Cc1cnc2cnc(F)cc2c1Nc1ccc(Cc2ccccc2)cc1` [Example 106, 4-[(4-benzylphenyl)amino]-6-fluoro-1,7-naphthyridine-3-carbonitrile] was tested, and the IC50 [2] was 0.3 µM.

In the case of `CN(c1ccc(F)c(Cl)c1)c1c(C#N)cnc2cnc(F)cc12` [Example 107, 4-[(3-chloro-4-fluorophenyl)(methyl)amino]-6-fluoro-1,7-naphthyridine-3-carbonitrile], the IC50 [2] is reported as > 10 µM.

In the case of `CN(C)CCNc1cc2c(Nc3ccc(Cc4ccccc4)cc3)c(C#N)cnc2cn1` [Example 108, 4-[(4-benzylphenyl)amino]-6-{[2-(dimethylamino)ethyl]amino}-1,7-naphthyridine-3-carbonitrile], the IC50 [2] is reported as > 10 µM.

`CC(C)(C)Nc1c(C#N)cnc2cnc(NCc3cccnc3)cc12` [Example 110, 4-(tert-butylamino)-6-[(pyridin-3-ylmethyl)amino]-1,7-naphthyridine-3-carbonitrile] was tested, and the IC50 [2] was 0.63 µM.

`N#Cc1cnc2cnc(NCc3cccnc3)cc2c1NC1CC1` [Example 111, 4-(cyclopropylamino)-6-[(pyridin-3-ylmethyl)amino]-1,7-naphthyridine-3-carbonitrile] showed an IC50 [2] of 2.8 µM.

In the case of `N#Cc1cnc2cnc(NCc3cccnc3)cc2c1NC1CCCC1` [Example 112, 4-(cyclopentylamino)-6-[(pyridin-3-ylmethyl)amino]-1,7-naphthyridine-3-carbonitrile], the IC50 [2] is reported as 0.32 µM.

`N#Cc1cnc2cnc(NCc3cccnc3)cc2c1NC1CCCCCC1` [Example 113, 4-(cycloheptylamino)-6-[(pyridin-3-ylmethyl)amino]-1,7-naphthyridine-3-carbonitrile] gave an IC50 [2] of 0.16 µM.
